The values that follow come from patent US20260265208A1, “TETRALINE, PHENYLCYCLOBUTANE AND PHENYLCYCLOPENTANE ANALOGS AS RXFP1 AGONISTS” (BRISTOL-MYERS SQUIBB COMPANY, priority 2021, published 2026).

pEC50: −log10 of the molar value.

One data set deals with T1, human RXFP1 (Homo sapiens, UniProt Q9HBX9).
T1 construct: expressed in transfected cells
T1 sequence (Q9HBX9 1-757): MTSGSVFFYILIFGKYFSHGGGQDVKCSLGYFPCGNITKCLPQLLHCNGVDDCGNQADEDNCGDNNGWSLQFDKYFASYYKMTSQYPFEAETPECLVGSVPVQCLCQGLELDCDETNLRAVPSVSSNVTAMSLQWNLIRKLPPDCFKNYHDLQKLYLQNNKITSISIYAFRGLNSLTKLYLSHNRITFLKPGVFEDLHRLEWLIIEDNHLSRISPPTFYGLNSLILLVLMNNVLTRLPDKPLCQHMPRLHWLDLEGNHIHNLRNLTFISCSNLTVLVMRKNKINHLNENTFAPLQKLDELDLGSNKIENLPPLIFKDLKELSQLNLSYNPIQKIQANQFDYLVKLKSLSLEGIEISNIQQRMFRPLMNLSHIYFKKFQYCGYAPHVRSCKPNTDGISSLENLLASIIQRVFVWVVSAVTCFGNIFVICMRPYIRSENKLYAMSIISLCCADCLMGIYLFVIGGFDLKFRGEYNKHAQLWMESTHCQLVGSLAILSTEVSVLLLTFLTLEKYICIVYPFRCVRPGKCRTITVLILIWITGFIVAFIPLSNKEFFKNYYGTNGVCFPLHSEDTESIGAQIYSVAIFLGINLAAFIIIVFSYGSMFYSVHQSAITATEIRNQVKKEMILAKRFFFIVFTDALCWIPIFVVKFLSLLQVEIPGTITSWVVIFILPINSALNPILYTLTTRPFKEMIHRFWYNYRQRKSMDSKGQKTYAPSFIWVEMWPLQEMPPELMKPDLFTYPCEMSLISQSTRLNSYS
Briefly: hRXFP1 HEK293 cAMP assay (HTRF). Type of data set: cell-based. The conditions noted are these: HEK293 cells stably expressing human RXFP1. The method, then: RXFP1 Cyclic Adenosine Monophosphate (cAMP) Assays. Human embryonic kidney cells 293 (HEK293) cells and HEK293 cells stably expressing human RXFP1, were cultured in MEM medium supplemented with 10% qualified FBS, and 300 μg/ml hygromycin (Life Technologies). Cells were dissociated and suspended in assay buffer. The assay buffer was HBSS buffer (with calcium and magnesium) containing 20 mM HEPES, 0.05% BSA, and 0.5 mM IBMX. Cells (3000 cells per well, except 1500 cell per well for HEK293 cells stably expressing human RXFP1) were added to 384-well Proxiplates (Perkin-Elmer). Cells were immediately treated with test compounds in DMSO (2% final) at final concentrations in the range of 0.010 nM to 50 μM. Cells were incubated for 30 min at room temperature. The level of intracellular cAMP was determined using the HTRF HiRange cAMP assay reagent kit (Cisbio) according to manufacturer's instructions. Solutions of cryptate conjugated anti-cAMP and d2 fluorophore-labelled cAMP were made in a supplied lysis buffer separately. Upon completion of the reaction, the cells were lysed with equal volume of the d2-cAMP solution and anti-cAMP solution. After a 1 h room temperature incubation, time-resolved fluorescence intensity was measured using the Envision (Perkin-Elmer) at 400 nm excitation and dual emission at 590 nm and 665 nm. A calibration curve was constructed with an external cAMP standard at concentrations ranging from 2.7 μM to 0.1 μM by plotting the fluorescent intensity ratio from 665 nm emission to the intensity from the 590 nm emission against cAMP concentrations. The potency and activity of a compound to […] cAMP production was then determined by fitting to a 4-parametric logistic equation from a plot of cAMP level versus compound concentrations.
The examples disclosed below were tested in the human RXFP1 (hRXFP1) HEK293 cAMP assay described above and found to have agonist activity. Tables 1-3, lists EC50 values in the hRXFP1 HEK293 cAMP assay measured for the examples.

The conditions of data set [1]: intravenous (IV) formulation; cited from earlier work.
Setting [2] is: phenylcyclohexyl (tetraline) examples.

Compound `COc1ccc(-c2noc(CCO)c2CCO)cc1C(=O)Nc1cc2c(cc1C(=O)Nc1ccc(F)c(C(F)(F)F)c1)CCCC2` [Example 16, 3-(5-(4,5-bis(2-hydroxyethyl)isoxazol-3-yl)-2-methoxybenzamido)-N-(4-fluoro-3-(trifluoromethyl)phenyl)-5,6,7,8-tetrahydronaphthalene-2-carboxamide] had a pEC50 on human RXFP1 (setting [2]) of 5.30. Compound `COc1ccc(-c2cc([C@H](OC(=O)NC3CCC3)C(F)(F)F)ccc2F)cc1C(=O)Nc1cc2c(cc1C(=O)Nc1ccc(F)c(C(F)(F)F)c1)CCCC2=O` [Example 17, (S)-2,2,2-trifluoro-1-(6-fluoro-3′-((3-(4-fluoro-3-(trifluoromethyl)phenyl)carbamoyl)-8-oxo-5,6,7,8-tetrahydronaphthalen-2-yl)carbamoyl)-4′-methoxy-[1,1′-biphenyl]-3-yl)ethyl cyclobutylcarbamate] had a pEC50 at human RXFP1 (setting [2]) of 7.66. Take `COc1ccc(-c2cc(C(=O)O)ccc2F)cc1C(=O)Nc1cc2c(cc1C(=O)Nc1ccc(F)c(C(F)(F)F)c1)CCCC2=O` [Example 18, 6-fluoro-3′-((3-((4-fluoro-3-(trifluoromethyl)phenyl)carbamoyl)-8-oxo-5,6,7,8-tetrahydronaphthalen-2-yl)carbamoyl)-4′-methoxy-[1,1′-biphenyl]-3-carboxylic acid]: at human RXFP1 (setting [2]), the pEC50 is 5.96.

In the case of `COc1ccc(-c2cnn(CC(=O)O)c2)cc1C(=O)Nc1cc2c(cc1C(=O)Nc1ccc(F)c(C(F)(F)F)c1)CCCC2` [Example 19, 2-(4-(3-((3-((4-fluoro-3-(trifluoromethyl)phenyl)carbamoyl)-5,6,7,8-tetrahydronaphthalen-2-yl)carbamoyl)-4-methoxyphenyl)-1H-pyrazol-1-yl)acetic acid], the pEC50 on human RXFP1 (setting [2]) is 5.89. `COc1ccc(N2CCCS2(=O)=O)cc1C(=O)Nc1cc2c(cc1C(=O)Nc1ccc(F)c(C(F)(F)F)c1)CCCC2` [Example 20, 3-(5-(1,1-dioxidoisothiazolidin-2-yl)-2-methoxybenzamido)-N-(4-fluoro-3-(trifluoromethyl)-phenyl)-5,6,7,8-tetrahydronaphthalene-2-carboxamide] had a pEC50 on human RXFP1 (setting [2]) of 5.66. Against the preceding compound, the pEC50 is 0.23 log units lower. Turning to `COc1ccc(-c2cc(C(=O)O)ccc2F)cc1C(=O)Nc1cc2c(cc1C(=O)Nc1ccc(F)c(C(F)(F)F)c1)CC2` [Example 21], the pEC50 on human RXFP1 (phenylcyclobutane examples) is 5.62. `COc1ccc(-c2cc(C(NC(=O)C3CCOCC3)C(=O)O)ccc2F)cc1C(=O)Nc1cc2c(cc1C(=O)Nc1ccc(F)c(C(F)(F)F)c1)CC2` (stereo not drawn) [Example 22, 2-(6-fluoro-3′-((4-((4-fluoro-3-(trifluoromethyl)phenyl)carbamoyl)bicyclo[4.2.0]octa-1,3,5-trien-3-yl)carbamoyl)-4′-methoxy-[1,1′-biphenyl]-3-yl)-2-(tetrahydro-2H-pyran-4-carboxamido)acetic acid] showed a pEC50 at human RXFP1 (phenylcyclobutane examples) of 8.10. Compound `COc1ccc(-c2cc(C(O)C(=O)O)ccc2F)cc1C(=O)Nc1cc2c(cc1C(=O)Nc1ccc(F)c(C(F)(F)F)c1)CC2` (stereo not drawn) [Example 23, 2-(6-fluoro-3′-((4-((4-fluoro-3-(trifluoromethyl)phenyl)carbamoyl)bicyclo[4.2.0]octa-1,3,5-trien-3-yl)carbamoyl)-4′-methoxy-[1,1′-biphenyl]-3-yl)-2-hydroxyacetic acid] gave a pEC50 on human RXFP1 (phenylcyclobutane examples) of 6.18. `COc1ccc(-c2cc(C(=O)O)ccc2F)cc1C(=O)Nc1cc2c(cc1C(=O)Nc1ccc(F)c(C(F)(F)F)c1)CCC2` [Example 24, 6-fluoro-3′-((6-((4-fluoro-3-(trifluoromethyl)phenyl)carbamoyl)-2,3-dihydro-1H-inden-5-yl)carbamoyl)-4′-methoxy-[1,1′-biphenyl]-3-carboxylic acid] showed a pEC50 at human RXFP1 (phenylcyclopentyl examples) of 5.46. Still for that read-out and setting: the result for `COc1ccc(-c2cc(C(NC(=O)C3CCOCC3)C(=O)O)ccc2F)cc1C(=O)Nc1cc2c(cc1C(=O)Nc1ccc(F)c(C(F)(F)F)c1)CCC2` (stereo not drawn) [Example 25, 2-(6-fluoro-3′-((6-((4-fluoro-3-(trifluoromethyl)phenyl)carbamoyl)-2,3-dihydro-1H-inden-5-yl)carbamoyl)-4′-methoxy-[1,1′-biphenyl]-3-yl)-2-(tetrahydro-2H-pyran-4-carboxamido)acetic acid] reads 7.96; that for `COc1ccc(-c2cc(C(=O)O)ccc2F)cc1C(=O)Nc1cc2c(cc1C(=O)Nc1ccc(F)c(C(F)(F)F)c1)CCC2=O` [Example 26, 6-fluoro-3′-((6-((4-fluoro-3-(trifluoromethyl)phenyl)carbamoyl)-3-oxo-2,3-dihydro-1H-inden-5-yl)carbamoyl)-4′-methoxy-[1,1′-biphenyl]-3-carboxylic acid], 6.64. In the case of Serelaxin, the first-phase pharmacokinetic half-life in data set [1] is 5.4 min.
